Test system: Plasmodium berghei
Test: Luciferase/luciferin-expressing antifolate-resistant parasites were used to infect a culture of HepG2 cells that were pre-incubated with compounds. Infected hepatocytes emit light due to the luciferase reaction. Assay results are presented as the percent inhibition of light emission compared to control. […]
Type: functional
Conditions: sporozoite; for IC90: read-out: LUCIFERASE INFECTION ASSAY - IC90
[1] = read-out: LUCIFERASE INFECTION ASSAY - IC50

| Compound | IC90 [µM] | other results |
| --- | --- | --- |
| CN(c1ccccc1)c1nccc2nc(-c3ccncc3)[nH]c12 | > 10 | IC50 (HEPG2TOX_HILL_SLOPE 0.766, HEPG2TOX_R_SQUARED 0.225, read-out: LUCIFERASE INFECTION ASSAY - IC50): > 10 µM |
| CC(C(=O)Nc1cccc(C#Cc2cccs2)c1)n1cnc2ccccc21 (stereo not given) | > 10 | IC50 [1]: > 10 µM |
| COc1cccc(N(C)S(=O)(=O)c2cccc3cc(C)cnc23)n1 | 3.82 | IC50 (PBLUC_HILL_SLOPE 18.8, PBLUC_R_SQUARED 0.316, read-out: LUCIFERASE INFECTION ASSAY - IC50): 3.4 µM |
| O=C(Nc1cccc(Cl)c1)OCc1ccccc1F | > 11.8 | IC50 [1]: > 11.8 µM |
| CCOc1c(Br)cnn(-c2ccc(C)cc2)c1=O | > 10.7 | IC50 (HEPG2TOX_HILL_SLOPE 0.0619, HEPG2TOX_R_SQUARED 0.0842, PBLUC_HILL_SLOPE 9.69, PBLUC_R_SQUARED 0.342, read-out: LUCIFERASE INFECTION ASSAY - IC50): > 10.7 µM |
| Cc1n[nH]c(C(=O)NCc2ccc(OC(C)C)cc2)c1Br | > 10 | IC50 (PBLUC_HILL_SLOPE 12.5, PBLUC_R_SQUARED 0.288, read-out: LUCIFERASE INFECTION ASSAY - IC50): 8.82 µM |
| O=C(c1cc(-c2cccc3ccccc23)nc2ccccc12)N1CCN(c2ncccn2)CC1 | > 10 | IC50 (PBLUC_HILL_SLOPE 2.78, PBLUC_R_SQUARED 0.395, read-out: LUCIFERASE INFECTION ASSAY - IC50): 8.3 µM |
| COc1ccc(C(C)(C)C)cc1NC(=O)c1ccc(NC(=O)Nc2ccccc2)s1 | 5.68 | IC50 [1]: 5.57 µM |
| CC(C)(c1ccc(Oc2ccc(NC(=O)C3CC3(C)C)cc2)cc1)c1ccc(Oc2ccc(NC(=O)C3CC3(C)C)cc2)cc1 (stereo not given) | > 5.47 | IC50 (FFLUC_HILL_SLOPE 0.986, FFLUC_R_SQUARED 0.483, PBLUC_HILL_SLOPE 0.525, PBLUC_R_SQUARED 0.295, read-out: LUCIFERASE INFECTION ASSAY - IC50): 2.36 µM |
| Nc1ncc(-c2cccc(OC(F)(F)F)c2)cc1-c1cncc2ccccc12 | 3.99 | IC50 (HEPG2TOX_HILL_SLOPE 2.29, HEPG2TOX_R_SQUARED 0.959, PBLUC_HILL_SLOPE 12.1, PBLUC_R_SQUARED 0.284, read-out: LUCIFERASE INFECTION ASSAY - IC50): 3.33 µM |
| CC(C)(C)NC(=S)N/N=C/c1cccc(O)c1O | > 12.3 | IC50 [1]: > 12.3 µM |
| CC(=O)Nc1cccc(Nc2nccc3[nH]c(-c4ccccc4)cc23)c1 | 0.748 | IC50 (HEPG2TOX_HILL_SLOPE 1.53, HEPG2TOX_R_SQUARED 0.824, PBLUC_HILL_SLOPE 2.66, PBLUC_R_SQUARED 0.657, read-out: LUCIFERASE INFECTION ASSAY - IC50): 0.328 µM |
| Cc1nc(C2CC2)ncc1-c1nc(=Nc2ccccc2)s[nH]1 | > 10.7 | IC50 (HEPG2TOX_HILL_SLOPE 2.45, HEPG2TOX_R_SQUARED 0.884, PBLUC_HILL_SLOPE 3.42, PBLUC_R_SQUARED 0.283, read-out: LUCIFERASE INFECTION ASSAY - IC50): 7.23 µM |
| COc1cc(-c2ccnc3n[nH]c(-c4ccccc4)c23)cc(OC)c1OC | > 10 | IC50 [1]: 3.13 µM |
| COc1ccc(OC)c(S(=O)(=O)N2[C@@H]3CC[C@@H](C3)[C@H]2c2nc3cccc(OCc4ccccc4)c3[nH]2)c1 | > 10 | IC50 (PBLUC_HILL_SLOPE 10.6, PBLUC_R_SQUARED 0.0638, read-out: LUCIFERASE INFECTION ASSAY - IC50): > 10 µM |
| COCCCn1c(Sc2ncc(Br)cc2[N+](=O)[O-])nnc1-c1ccc(C(C)(C)C)cc1 | > 6.52 | IC50 (PBLUC_HILL_SLOPE 13.2, PBLUC_R_SQUARED 0.0327, read-out: LUCIFERASE INFECTION ASSAY - IC50): > 6.52 µM |
| CCOC(=O)c1ccc(-n2c(C)cc(/C=C(\C#N)c3nc4ccccc4[nH]3)c2C)cc1 | > 10 | IC50 [1]: > 10 µM |
| O=C(NC1CC1)c1cccc(NC(C(=O)Nc2cc(C(F)(F)F)ccc2Cl)c2ccccc2)c1 (stereo not given) | > 10 | IC50 [1]: 9.94 µM |
| Cc1onc(-c2ccc(Cl)cc2)c1-c1ccnc(SCC(=O)Nc2ccc(Cl)cc2)n1 | > 7 | IC50 (FFLUC_HILL_SLOPE 3.87, FFLUC_R_SQUARED 0.391, HEPG2TOX_HILL_SLOPE 3.01, HEPG2TOX_R_SQUARED 0.647, PBLUC_HILL_SLOPE 15.9, PBLUC_R_SQUARED 0.148, read-out: LUCIFERASE INFECTION ASSAY - IC50): 6.77 µM |
| COc1ccc(-c2cnc3cnc(-c4cnn(C)c4)cn23)cn1 | > 10.8 | IC50 (PBLUC_HILL_SLOPE 3.07, PBLUC_R_SQUARED 0.552, read-out: LUCIFERASE INFECTION ASSAY - IC50): 6.4 µM |

| Compound | IC90 [µM] | other results |
| --- | --- | --- |
| Clc1ccc(SCc2cc(N3CCCCC3)nc(-c3ccccn3)n2)cc1 | 2.67 | IC50 (HEPG2TOX_HILL_SLOPE 3.02, HEPG2TOX_R_SQUARED 0.983, PBLUC_HILL_SLOPE 17.6, PBLUC_R_SQUARED 0.462, read-out: LUCIFERASE INFECTION ASSAY - IC50): 2.35 µM |
| O=C(NCc1ccc(C(F)(F)F)cc1)Nc1cccc2cnccc12 | > 10 | IC50 (HEPG2TOX_HILL_SLOPE 1.51, HEPG2TOX_R_SQUARED 0.691, read-out: LUCIFERASE INFECTION ASSAY - IC50): > 10 µM |
| CCc1ccc2nc(Nc3nc(=O)cc(-c4cccc(OC)c4)[nH]3)nc(C)c2c1 | > 8.52 | IC50 (HEPG2TOX_HILL_SLOPE 12.4, HEPG2TOX_R_SQUARED 0.848, PBLUC_HILL_SLOPE 2.25, PBLUC_R_SQUARED 0.429, read-out: LUCIFERASE INFECTION ASSAY - IC50): 5.68 µM |
| O=C(Nc1cc(C(F)(F)F)cc(C(F)(F)F)c1)Nc1cnn(-c2ccc([N+](=O)[O-])cc2)c1C(F)(F)F | 3.21 | IC50 (PBLUC_HILL_SLOPE 8.84, PBLUC_R_SQUARED 0.29, read-out: LUCIFERASE INFECTION ASSAY - IC50): 2.5 µM |
| Cn1c(Nc2ccccc2)nc2cnc(-c3ccc(Cl)cc3)cc21 | > 10 | IC50 (PBLUC_HILL_SLOPE 23.8, PBLUC_R_SQUARED 0.319, read-out: LUCIFERASE INFECTION ASSAY - IC50): 9.73 µM |
| Cc1cc(C(=O)ONC(=N)c2c(-c3c(Cl)cccc3Cl)noc2C)no1 | > 8.35 | IC50 (PBLUC_HILL_SLOPE 25.8, PBLUC_R_SQUARED 0.198, read-out: LUCIFERASE INFECTION ASSAY - IC50): 8.05 µM |
| FC(F)(F)Oc1cccc(-c2ccc3ncc(-c4ccoc4)n3n2)c1 | > 10 | IC50 [1]: > 10 µM |
| Cc1cc(C(=O)NNC(=O)c2c(C)nc3ccccn23)c2nc3n(c2n1)CCCCC3 | 0.662 | IC50 (HEPG2TOX_HILL_SLOPE 1.28, HEPG2TOX_R_SQUARED 0.815, PBLUC_HILL_SLOPE 3.27, PBLUC_R_SQUARED 0.895, read-out: LUCIFERASE INFECTION ASSAY - IC50): 0.338 µM |
| O=C(c1cnc(N2CCCC2)s1)c1sc2cc(Cl)cc(Cl)c2c1Cl | > 10 | IC50 (FFLUC_HILL_SLOPE 11, FFLUC_R_SQUARED 0.0847, HEPG2TOX_HILL_SLOPE 2.22, HEPG2TOX_R_SQUARED 0.924, PBLUC_HILL_SLOPE 1.87, PBLUC_R_SQUARED 0.226, read-out: LUCIFERASE INFECTION ASSAY - IC50): 6.85 µM |
| COc1cccc(-c2nc3ccc(NC(=O)Nc4cccc(C(C)=O)c4)cn3n2)c1 | > 10 | IC50 [1]: > 10 µM |
| COc1ccc(Cl)cc1NC(=O)CN(C)c1nc(-c2cccnc2)nc2sc3c(c12)CCCC3 | > 10 | IC50 [1]: > 10 µM |
| CC(C)(C)c1ccc(CC(=O)N2CCC2(C)C(=O)Nc2cnc3ccccc3c2)cc1 (stereo not given) | 3.72 | IC50 (HEPG2TOX_HILL_SLOPE 0.158, HEPG2TOX_R_SQUARED 0.645, PBLUC_HILL_SLOPE 10.5, PBLUC_R_SQUARED 0.686, read-out: LUCIFERASE INFECTION ASSAY - IC50): 3.02 µM |
| COc1cncc(-c2cnn3ccc(Nc4ccc(Oc5ccccc5)cc4)nc23)c1 | > 8.06 | IC50 (HEPG2TOX_HILL_SLOPE 17.9, HEPG2TOX_R_SQUARED 0.509, PBLUC_HILL_SLOPE 0.505, PBLUC_R_SQUARED 0.666, read-out: LUCIFERASE INFECTION ASSAY - IC50): > 8.06 µM |
| CCCn1c(CCC(=O)OCC(=O)c2ccc(NC(=O)CC(C)C)cc2)nc2cc(S(=O)(=O)N3CCCC3)ccc21 | > 10 | IC50 [1]: > 10 µM |
| CCOC(=O)c1ccc(N2C(=O)C=CC2=O)cc1 | > 13.5 | IC50 (FFLUC_HILL_SLOPE 9.09, FFLUC_R_SQUARED 0.613, PBLUC_HILL_SLOPE 2.11, PBLUC_R_SQUARED 0.463, read-out: LUCIFERASE INFECTION ASSAY - IC50): 7.08 µM |
| CC(C)(C)c1ccc(-c2cnc3cnc(-c4ccncc4)cn23)cc1 | 4.79 | IC50 (HEPG2TOX_HILL_SLOPE 0.197, HEPG2TOX_R_SQUARED 0.782, PBLUC_HILL_SLOPE 7.81, PBLUC_R_SQUARED 0.726, read-out: LUCIFERASE INFECTION ASSAY - IC50): 3.62 µM |
| CCOC(=O)c1sc(N)c(C#N)c1CSc1nnnn1-c1ccccc1 | > 10 | IC50 (HEPG2TOX_HILL_SLOPE 0.327, HEPG2TOX_R_SQUARED 0.288, read-out: LUCIFERASE INFECTION ASSAY - IC50): > 10 µM |
| CCOC(=O)c1c(-c2cccs2)csc1NC(=O)c1c(S)n(-c2ccccc2C)c2ccc(C)c[n+]12 | > 10 | IC50 (FFLUC_HILL_SLOPE 11.9, FFLUC_R_SQUARED 0.481, read-out: LUCIFERASE INFECTION ASSAY - IC50): > 10 µM |
| COc1ccc(-c2cnc3cnc(-c4cccnc4)cn23)cc1 | 4.75 | IC50 (PBLUC_HILL_SLOPE 2.13, PBLUC_R_SQUARED 0.733, read-out: LUCIFERASE INFECTION ASSAY - IC50): 1.7 µM |
| c1ccc(C2(CNc3ncnc4ccccc34)CCC2)cc1 | 5.71 | IC50 (HEPG2TOX_HILL_SLOPE 1.34, HEPG2TOX_R_SQUARED 0.743, PBLUC_HILL_SLOPE 15.9, 1.42, PBLUC_R_SQUARED 0.162, 0.799, read-out: LUCIFERASE INFECTION ASSAY - IC50): 2.35 µM |

From ChEMBL document CHEMBL4483862, “Open-source discovery of chemical leads for next-generation chemoprotective antimalarials” (2018)
